The values that follow are results of earlier work, collected in patent US10335495B2, “Biomolecule conjugates” (CELGENE CORPORATION, priority 2014, dated 2019).

The structures appear in SMILES notation.

The conditions of this data set: versus methotrexate, daunorubicin, and vincristine.

For the compound `COc1cc2cc(c1Cl)N(C)C(=O)C[C@H](OC(=O)[C@H](C)N(C)C(C)=O)[C@]1(C)O[C@H]1[C@H](C)[C@@H]1C[C@@](O)(NC(=O)O1)[C@H](OC)/C=C/C=C(\C)C2` [Maytansine], the “more cytotoxic than conventional cancer chemotherapeutic agents” value is recorded as 100- to 1000 fold.
